These results are taken from PubChem BioAssay (NCI).

What all share (experiment): NCI anticancer screen, dose series, 48 h
For assay [1], the system named is PC-3 prostate.
Assay [2] relates to A498 renal.
Assay [3] concerns NCI/ADR-RES ovarian.
Assay [4] concerns HOP-92 NSCLC.
The subject of assay [5] is SF-268 CNS.
Assay [6] relates to LOX IMVI melanoma.
Assay [7] deals with HOP-62 NSCLC.
For assay [8], the system named is MDA-MB-435.
For assay [9], the system named is SR leukemia.
Assay [10] has as its system BT-549 breast.

SMILES strings stand for the structures.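 In this assay, cells in 96-well plates receive the compound at five concentrations for 48 hours. Endpoints are linearly interpolated between the surrounding concentrations. Here, GI50 denotes the concentration required for 50% inhibition of growth. TGI: total growth inhibition.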

Take `C=C(C)[C@@H]1CC[C@]2(C(=O)Nc3ccccn3)CC[C@]3(C)[C@H](CC[C@@H]4[C@@]5(C)CCCNC(C)(C)[C@@H]5CC[C@]43C)[C@@H]12`: the GI50 in [1] was 1.99 µM; in assay [2], 2.25 µM; in assay [3], 1.93 µM; in assay [4], 2.06 µM; in assay [5] it was 1.95 µM. Further, the TGI in [1] was 6.2 µM; in [2] it was 7.96 µM; in assay [3] it was 4.14 µM; in assay [4], 7.64 µM; in [5], 4.79 µM.

Regarding `Nc1ccc(OCC(O)N2C(=O)c3ccccc3C2=O)cc1` (stereo unspecified), the TGI in assay [1], in assay [6], in assay [7], in assay [8], in assay [3] and in assay [5] was over 100 µM each time.

Turning to `COc1ccc2c(c1)CCC(CN1CCN(CCOC(c3ccc(F)cc3)c3ccc(F)cc3)CC1)C2O` (stereo unspecified), the TGI in assay [1] is 24 µM; in [6], 29.8 µM; in assay [7] it was 34.5 µM; in [9] it was over 100 µM; in assay [2], 19.9 µM; in [8], 34.6 µM. For the same compound, the TGI in assay [3] was 25.4 µM; in assay [4] it was 26.7 µM; in assay [5], 27 µM; in [10], 27.5 µM.

Regarding `COc1ccc2[nH]c3c([N+](=O)[O-])ccc(Cl)c3c(=O)c2c1`, the TGI is 52.1 µM in [1]; 34.5 µM in assay [6]; 73.6 µM in [7]; over 100 µM in [2]; over 55.8 µM in [8]; over 71.2 µM in [3]. Also, the results for the TGI in assay [4], in assay [5] and in assay [10] were 29.7 µM, 53.6 µM and 32.1 µM, respectively.

In the case of `CC(C)(C)C1(c2ccc(C3(c4ccccc4)Oc4ccccc4S3)[nH]2)Oc2ccccc2S1` (stereo unspecified), the TGI in assay [6], in [7], in assay [4] and in assay [5] was over 100 µM in each case.

Turning to `C=C1CC23CCC4C(C)(C(=O)O)CCCC4(C)C2CCC1C3` (stereo unspecified), the TGI was over 100 µM in assay [1]; over 100 µM in assay [6]; over 100 µM in assay [7]; 90.9 µM in assay [9]; over 100 µM in [2]; over 100 µM in [8]. For the same compound, the TGI in [4] is 94.3 µM; in assay [5] it was over 100 µM; in assay [10] it was over 100 µM.

With `Cc1ccc(P(c2ccc(C)cc2)c2ccc(C)cc2)cc1`, the TGI in [1] was over 100 µM; in assay [6] it was 30.4 µM; in assay [2], 79.3 µM; in assay [8], 41.1 µM; in assay [3] it was over 100 µM; in assay [4], 20.8 µM. In addition, the TGI in assay [5] and in assay [10] was over 100 µM throughout.

Regarding `COC1/C=C\OC2(C)Oc3c(C)c(O)c4c(O)c(c(/C=N\OCCCc5ccccc5)c(O)c4c3C2=O)NC(=O)/C(C)=C\C=C/C(C)C(O)C(C)C(O)C(C)C(OC(C)=O)C1C` (stereo unspecified), the TGI in assay [1] amounted to 11.2 µM; in assay [6] it was 10.2 µM; in assay [7], 6.75 µM; in assay [9], 5.98 µM; in [2], 20.5 µM; in [8], 9.28 µM. For the same compound, the TGI in assay [3] worked out at 13.4 µM; in assay [4], 6.26 µM; in assay [5] it was 18.3 µM.

Turning to `O=Nc1ccc(O)c2ncccc12`, the TGI in assay [1] was 29.8 µM; in assay [6], 18.6 µM; in assay [7], 15 µM; in [9] it was over 100 µM; in assay [2] it was 42.4 µM; in [8], 3.83 µM. The TGI in [3] came to 18.3 µM; in assay [4], 11.9 µM; in assay [5] it was 17.2 µM; in assay [10], 23 µM.

On to `C=C1C(=O)CCC1C(=O)O` (stereo unspecified), for which the TGI in assay [1], in [6], in assay [7], in [9], in assay [2] and in assay [8] was over 100 µM each time. Also, the TGI in assay [3], in assay [5] and in assay [10] was over 100 µM each time.

For the compound `C[C@H](C(=O)N[C@@H](Cc1ccc(-c2ccccc2)cc1)C(=O)NC1CC(C)(C)N(C)C(C)(C)C1)c1ccc(-c2ccccc2)c(F)c1`, the GI50 in [8] was 1.29 µM; in [3], 1.77 µM; in [4], 1.26 µM; in assay [10], 1.62 µM. Besides, the TGI in assay [8] was determined as 2.56 µM; in [3] it was 4.19 µM; in [4], 2.7 µM; in [10] it was 3.25 µM.

`C=C(C)C1CC2=C(O1)C(=O)c1ccccc1C2=O` (stereo unspecified): the TGI in [6] is over 100 µM; in assay [7], 35.2 µM; in assay [4], 30.8 µM.

Take `Nc1nc(N)c2ncn(-c3ccc(Cl)c(Cl)c3)c2n1`: the TGI in assay [1] is 82.1 µM; in [7] it was 87.7 µM; in assay [2] it was 32.4 µM; in assay [8], over 100 µM; in [3], over 100 µM; in [4] it was over 100 µM. For the same compound, the figures for the TGI in [5] and in [10] were over 100 µM and 72.6 µM, respectively.

In the case of `O=[N+]([O-])c1ccc(/C=N\Nc2ccc([N+](=O)[O-])cn2)cc1`, the TGI in [1], in [7], in [8], in assay [3], in assay [4] and in [5] was over 100 µM throughout. For the same compound, in assay [10], the TGI is over 100 µM.

Take `O=C(O)CC(C(=O)O)C1c2ccccc2-c2ccccc21` (stereo unspecified): the TGI in [1], in [6], in assay [7], in [9], in assay [2] and in [8] was over 100 µM in each case. The TGI in assay [3], in assay [5] and in assay [10] was over 100 µM each time.

For the compound `CC(C)=CCc1c(O)ccc2c1OC1c3ccc(O)c(CC=C(C)C)c3OCC21` (stereo unspecified), the TGI is 22.3 µM in [6]; 23.9 µM in assay [7]; 25 µM in assay [2]; 32.2 µM in assay [3]; over 100 µM in assay [4]; 27 µM in assay [5].

Consider `CN1CCC(C(=O)NNc2ccccc2)CC1`, for which the TGI was 11.3 µM in assay [6]; over 86.1 µM in assay [7]; over 100 µM in [9]; over 100 µM in assay [2]; over 100 µM in assay [4]; over 100 µM in assay [5].

As for `N=C(N)c1ccc(-c2ccc(-c3cncc4ccccc34)s2)cc1F`, in assay [2], the GI50 is 1.06 µM and the TGI worked out at 2.5 µM. For the same compound, in assay [8], the GI50 is 1.86 µM and the TGI worked out at 3.49 µM.

With `COc1cc(C(C)(C)C)cc(OC)c1C(O)(c1c(OC)cc(C(C)(C)C)cc1OC)c1c(OC)cc(C(C)(C)C)cc1OC`, the GI50 in assay [6] was 0.357 µM; in assay [2], 0.477 µM; in assay [8], 0.306 µM. The TGI in [6] is 1.45 µM; in assay [2], 2.53 µM; in [8] it was 0.974 µM.

With `FC(F)(F)c1ccc2c(c1)nc(Cc1ccc(Cl)c(Cl)c1)n2CC1CCCN2CCCCC12` (stereo unspecified), the TGI was over 100 µM in assay [1]; 31.6 µM in assay [6]; over 100 µM in assay [7]; 74.6 µM in assay [9]; 67.6 µM in assay [2]; over 100 µM in assay [8]. The TGI was 84.7 µM in assay [3], over 100 µM in assay [4], over 100 µM in [5] and 85.2 µM in [10].

With `CCN=C=NCCCN(C)C`, the TGI in assay [1], in assay [6], in [7], in assay [9], in [2] and in assay [8] was over 100 µM throughout. Further, the TGI in assay [3], in assay [4], in assay [5] and in [10] was over 100 µM throughout.

With `C=C(CN(C)C)C(=O)c1ccc(C)cc1C`, the TGI in assay [1] worked out at 31.1 µM; in [6], 15.2 µM; in [7], 47.5 µM; in assay [9], 4.26 µM; in [2], 33.7 µM; in [8], 17.1 µM. Further, the TGI in [3] was determined as 40.3 µM; in [4], 10.4 µM; in assay [5], 35.4 µM; in assay [10], 12.7 µM.

In the case of `O=C(/C=c1\oc(=O)/c(=C/C(=O)c2ccc(Cl)cc2)oc1=O)c1ccc(Cl)cc1`, the TGI in [1], in assay [6], in [7], in assay [9], in assay [2] and in [8] was over 100 µM each time. In addition, the TGI in assay [3] is over 100 µM; in assay [4], over 100 µM; in assay [5], over 100 µM; in [10] it was 91 µM.

As to `C/C1=N\NC(=O)c2ccccc2C(=O)N/N=C(\C)c2cccc1n2.O=[N+]([O-])[O-].[Zn+2]`, the TGI in assay [7], in [2] and in assay [5] was over 100 µM in each case.

As to `COc1ccc(-c2nn(-c3ccc(NC(=O)Nc4ccc(Cl)c(Cl)c4)cc3)cc2-c2ccncc2)cc1Cl`, the GI50 in [1] is 1.29 µM; in assay [6] it was 2.24 µM; in assay [7], 3.73 µM; in assay [9] it was 2.65 µM; in assay [2] it was 1.75 µM; in assay [8], 2.3 µM. For the same compound, the values for the GI50 in assay [3], in [4] and in assay [5] were 2.06 µM, 1.82 µM and 4.19 µM, respectively. For the same compound, the TGI in assay [1] was 14.4 µM; in assay [6], 10.4 µM; in assay [7], over 100 µM; in assay [9], 35.6 µM; in assay [2], 8.04 µM; in [8] it was over 100 µM. Besides, the TGI in [3] was over 100 µM; in assay [4], 5.72 µM; in assay [5], over 100 µM.

As to `c1ccc(-n2cnnc2-c2nsc3ccccc23)cc1`, the TGI in [6], in assay [7], in assay [4] and in [5] was over 100 µM throughout.
